US20120121591A1 (priority 2009, published 2012)
Where two headings read alike, the source gives them in different places.

Experiments:
Assay type in all cases: cell-based
[1] = system: IL-2 secretion from T cells in human whole blood; conditions: read-out: WB (IL-2) IC50 (nM, Avg)
[2] = system: IFN-g secretion from T cells in human whole blood
hKv1.3 = hKv1.3 (Homo sapiens, UniProt P22001); assay: cell-based; conditions: Kv1.3 (IWQ) IC50 (nM, Avg)
[3] = read-out: WB (IFNg) IC50 (nM, Avg)

Chain of hKv1.3 (P22001 whole entry): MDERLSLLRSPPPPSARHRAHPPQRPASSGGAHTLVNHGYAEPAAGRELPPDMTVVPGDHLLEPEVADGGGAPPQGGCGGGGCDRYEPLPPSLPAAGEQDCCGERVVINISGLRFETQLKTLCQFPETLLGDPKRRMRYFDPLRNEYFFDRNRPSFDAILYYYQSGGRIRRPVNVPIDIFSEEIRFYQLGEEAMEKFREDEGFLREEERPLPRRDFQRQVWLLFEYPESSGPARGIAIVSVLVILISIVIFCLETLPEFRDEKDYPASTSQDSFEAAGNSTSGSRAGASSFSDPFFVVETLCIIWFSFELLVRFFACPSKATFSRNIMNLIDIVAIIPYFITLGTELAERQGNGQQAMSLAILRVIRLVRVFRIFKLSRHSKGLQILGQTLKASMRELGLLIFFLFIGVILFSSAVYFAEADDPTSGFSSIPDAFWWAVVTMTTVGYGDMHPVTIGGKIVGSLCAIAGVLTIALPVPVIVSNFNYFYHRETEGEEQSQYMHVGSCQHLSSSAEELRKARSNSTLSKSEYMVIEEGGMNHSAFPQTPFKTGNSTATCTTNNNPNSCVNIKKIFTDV

SMILES | IC50 [1] | IC50 ([2]; read-out: WB (IFNg) IC5- (nM, Avg)) | IC50 (hKv1.3) | IC50 [2, 3]
CC[C@H](C)[C@@H]1NC(=O)[C@@H](NC(=O)[C@H](CO)NC(=O)[C@@H](N)CCCNC(=N)N)CSSC[C@@H](C(=O)O)NC(=O)[C@H]([C@@H](C)O)NC(=O)CNC(=O)[C@@H]2CSSC[C@@H]3NC(=O)[C@H](CCC(=O)O)NC(=O)[C@H](Cc4ccccc4)NC(=O)[C@H](C)NC(=O)[C@H]([C@@H](C)O)NC(=O)[C@H](CSSC[C@H](NC(=O)[C@H](Cc4ccccc4)NC(=O)[C@H](CO)NC(=O)[C@H](CC(C)C)NC(=O)[C@H](CCCNC(=N)N)NC(=O)[C@H](Cc4ccc(O)cc4)NC(=O)[C@H](CCCCN)NC(=O)[C@H](CCSC)NC(=O)[C@H](CO)NC(=O)[C@H](Cc4c[nH]cn4)NC(=O)[C@H](CCCCN)NC3=O)C(=O)N[C@@H](CCCNC(=N)N)C(=O)N[C@@H](CCCCN)C(=O)N[C@@H]([C@@H](C)O)C(=O)N2)NC(=O)[C@H](CCCNC(=N)N)NC(=O)[C@H](CO)NC(=O)[C@H](CCCCN)NC(=O)[C@@H]2CCCN2C(=O)[C@H]([C@@H](C)CC)NC(=O)[C@H]([C@@H](C)O)NC(=O)[C@H](CC(=O)O)NC1=O [[Glu16]ShK] | 0.351 nM | 0.373 nM | 0.206 nM | 
CC[C@H](C)[C@@H]1NC(=O)[C@@H](NC(=O)[C@H](CO)NC(=O)[C@@H](N)CCCNC(=N)N)CSSC[C@@H](C(=O)O)NC(=O)[C@H]([C@@H](C)O)NC(=O)CNC(=O)[C@@H]2CSSC[C@@H]3NC(=O)[C@H](CCC(N)=O)NC(=O)[C@H](Cc4ccccc4)NC(=O)[C@H](C)NC(=O)[C@H]([C@@H](C)O)NC(=O)[C@H](CSSC[C@H](NC(=O)[C@H](Cc4ccccc4)NC(=O)[C@H](CO)NC(=O)[C@H](CC(C)C)NC(=O)[C@H](CCCNC(=N)N)NC(=O)[C@H](Cc4ccc(O)cc4)NC(=O)[C@H](CCCCN)NC(=O)[C@H](CCSC)NC(=O)[C@H](CO)NC(=O)[C@H](Cc4c[nH]cn4)NC(=O)[C@H](CCCCN)NC3=O)C(=O)N[C@@H](CCCNC(=N)N)C(=O)N[C@@H](CCCCN)C(=O)N[C@@H]([C@@H](C)O)C(=O)N2)NC(=O)[C@H](CCCNC(=N)N)NC(=O)[C@H](CO)NC(=O)[C@H](CCCCN)NC(=O)[C@@H]2CCCN2C(=O)[C@H](Cc2cccc3ccccc23)NC(=O)[C@H]([C@@H](C)O)NC(=O)[C@H](CC(=O)O)NC1=O [[1-Nal7]ShK] | 11.6 nM |  | 0.699 nM | 18 nM
CCCC[C@@H]1NC(=O)[C@H](CO)NC(=O)[C@H](Cc2c[nH]cn2)NC(=O)[C@H](CCCCN)NC(=O)[C@@H]2CSSC[C@@H]3NC(=O)[C@H]([C@@H](C)O)NC(=O)[C@H](CCCCN)NC(=O)[C@H](CCCNC(=N)N)NC(=O)[C@H](CSSC[C@H](NC(=O)[C@H](CCCNC(=N)N)NC(=O)[C@H](CO)NC(=O)[C@H](CCCCN)NC(=O)[C@@H]4CCCN4C(=O)[C@H]([C@@H](C)CC)NC(=O)[C@H]([C@@H](C)O)NC(=O)[C@H](CC(=O)O)NC(=O)[C@H]([C@@H](C)CC)NC(=O)[C@@H](NC(=O)[C@H](CO)NC(=O)[C@@H](N)CCCNC(=N)N)CSSC[C@@H](C(=O)N[C@@H](Cc4ccc(O)cc4)C(=O)O)NC(=O)[C@H]([C@@H](C)O)NC(=O)CNC3=O)C(=O)N[C@@H]([C@@H](C)O)C(=O)N[C@@H](C)C(=O)N[C@@H](Cc3ccccc3)C(=O)N[C@@H](CCCCN)C(=O)N2)NC(=O)[C@H](Cc2ccccc2)NC(=O)[C@H](CO)NC(=O)[C@H](CC(C)C)NC(=O)[C@H](CCCNC(=N)N)NC(=O)[C@H](Cc2ccc(O)cc2)NC(=O)[C@H](CCCCN)NC1=O [[Lys16,N1e21]ShK-Tyr] | 0.418 nM |  | 109 nM | 0.485 nM
CC[C@H](C)[C@@H]1NC(=O)[C@H](CO)NC(=O)[C@H](Cc2c[nH]cn2)NC(=O)[C@H](CCCCN)NC(=O)[C@@H]2CSSC[C@@H]3NC(=O)[C@H]([C@@H](C)O)NC(=O)[C@H](CCCCN)NC(=O)[C@H](CCCNC(=N)N)NC(=O)[C@H](CSSC[C@H](NC(=O)[C@H](CCCNC(=N)N)NC(=O)[C@H](CO)NC(=O)[C@H](CCCCN)NC(=O)[C@@H]4CCCN4C(=O)[C@H]([C@@H](C)CC)NC(=O)[C@H]([C@@H](C)O)NC(=O)[C@H](CC(=O)O)NC(=O)[C@H]([C@@H](C)CC)NC(=O)[C@@H](NC(=O)[C@H](CO)NC(=O)[C@@H](N)CCCNC(=N)N)CSSC[C@@H](C(N)=O)NC(=O)[C@H]([C@@H](C)O)NC(=O)CNC3=O)C(=O)N[C@@H]([C@@H](C)O)C(=O)N[C@@H](C)C(=O)N[C@@H](Cc3ccccc3)C(=O)N[C@@H](CCCCN)C(=O)N2)NC(=O)[C@H](Cc2ccccc2)NC(=O)[C@H](CO)NC(=O)[C@H](CC(C)C)NC(=O)[C@H](CCCNC(=N)N)NC(=O)[C@H](Cc2ccc(O)cc2)NC(=O)[C@H](CCCCN)NC1=O [[Lys16, Ile21]ShK-amide] | 2.49 nM |  | 0.14 nM | 5.77 nM
CC[C@H](C)[C@@H]1NC(=O)[C@@H](NC(=O)[C@H](CO)NC(=O)[C@@H](N)CCCNC(=N)N)CSSC[C@@H](C(=O)O)NC(=O)[C@H](CCCCN)NC(=O)CNC(=O)[C@@H]2CSSC[C@@H]3NC(=O)[C@H](CCC(N)=O)NC(=O)[C@H](Cc4ccccc4)NC(=O)[C@H](C)NC(=O)[C@H]([C@@H](C)O)NC(=O)[C@H](CSSC[C@H](NC(=O)[C@H](Cc4ccccc4)NC(=O)[C@H](CO)NC(=O)[C@H](CC(C)C)NC(=O)[C@H](CCCNC(=N)N)NC(=O)[C@H](Cc4ccc(O)cc4)NC(=O)[C@H](CCCCN)NC(=O)[C@H](CCSC)NC(=O)[C@H](CO)NC(=O)[C@H](Cc4c[nH]cn4)NC(=O)[C@H](CCCCN)NC3=O)C(=O)N[C@@H](CCCNC(=N)N)C(=O)N[C@@H](CCCCN)C(=O)N[C@@H]([C@@H](C)O)C(=O)N2)NC(=O)[C@H](CCCNC(=N)N)NC(=O)[C@H](CO)NC(=O)[C@H](CCCCN)NC(=O)[C@@H]2CCCN2C(=O)[C@H]([C@@H](C)CC)NC(=O)[C@H]([C@@H](C)O)NC(=O)[C@H](CC(=O)O)NC1=O [[Lys34]ShK] | 0.067 nM |  | 0.15 nM | 0.136 nM
CCC[C@@H]1NC(=O)[C@H](CO)NC(=O)[C@H](Cc2c[nH]cn2)NC(=O)[C@H](CCCCN)NC(=O)[C@@H]2CSSC[C@@H]3NC(=O)[C@H]([C@@H](C)O)NC(=O)[C@H](CCCCN)NC(=O)[C@H](CCCNC(=N)N)NC(=O)[C@H](CSSC[C@H](NC(=O)[C@H](CCCNC(=N)N)NC(=O)[C@H](CO)NC(=O)[C@H](CCCCN)NC(=O)[C@@H]4CCCN4C(=O)[C@H]([C@@H](C)CC)NC(=O)[C@H]([C@@H](C)O)NC(=O)[C@H](CC(=O)O)NC(=O)[C@H]([C@@H](C)CC)NC(=O)[C@@H](NC(=O)[C@H](CO)NC(=O)[C@@H](N)CCCNC(=N)N)CSSC[C@@H](C(N)=O)NC(=O)[C@H]([C@@H](C)O)NC(=O)CNC3=O)C(=O)N[C@@H]([C@@H](C)O)C(=O)N[C@@H](C)C(=O)N[C@@H](Cc3ccccc3)C(=O)N[C@@H](CCCCN)C(=O)N2)NC(=O)[C@H](Cc2ccccc2)NC(=O)[C@H](CO)NC(=O)[C@H](CC(C)C)NC(=O)[C@H](CCCNC(=N)N)NC(=O)[C@H](Cc2ccc(O)cc2)NC(=O)[C@H](CCCCN)NC1=O [[Lys16, Nva21]ShK-amide] | 0.486 nM |  | 0.47 nM | 0.932 nM
